Consider 25 compounds from patent US20100160369A1, “S1P1 Agonists and Methods of Making And Using” (EXELIXIS, INC., priority 2008, published 2010).

Where two headings read alike, the source gives them in different places.

The assay deals with S1P1 (Homo sapiens, UniProt P21453). Nature of the assay: Tango β-arrestin Recruitment Assay in U2OS cells (Assay 2b). It is filed as cell-based. Set-up: linker with TEV protease (N1a) cleavage site (C). From the text:
For the Tango™ β-arrestin recruitment assay, the cytoplasmic C-terminus of S1P1 is tethered to the tTA transcriptional activator with a linker that contains a cleavage site for the N1a protease from tobacco etch virus (TEV protease). The C-terminus of the human β-arrestin2 protein is fused to TEV protease. Binding of an agonist recruits the β-arrestin-TEV fusion protein to the receptor resulting in cleavage of the linker and release of tTA to enter the nucleus and subsequently activate a tTA-dependent luciferase reporter gene.
Alternatively, U2OS cells expressing the reporter gene and S1P1 (Invitrogen) were added to the wells of a 384-well white opaque bottom assay plate (PerkinElmer) at […] per well. The cells were serum starved for 48 h in Freestyle medium (Invitrogen). Test compounds were tested at maximum concentrations of 1 μM for the agonist assay. Compounds were diluted in DMSO (10 concentration points, 3-fold each) and added to the assay plate at a 1% final DMSO concentration. The efficacy control was 1 μM S1P (Avanti). For each compound, there were duplicate assay plates and each assay plate had duplicate wells per concentration point. The plate was incubated overnight at 37° C. The GeneBLAzer β-lactamase assay reagent (Invitrogen) was added and the plates were incubated for an additional 2 h at room temperature. Fluorescence was measured using an EnVision plate reader (PerkinElmer, Waltham, Mass.) at an excitation wavelength of 409 nm and emission wavelengths of 460 nm and 530 nm. The emission intensity at each wavelength was background subtracted against wells containing medium only and the F460 nm/F530 nm ratio determined for each concentration of the test compounds. Percent activity was calculated as [(test compound ratio−DMSO ratio)/(positive control ratio−DMSO ratio)*100], where the positive control and DMSO ratios are from cells incubated with the efficacy control 1 μM S1P and 1% DMSO, respectively. The percent activities were plotted against compound concentration to determine EC50 using XLFit (IDBS).
Assay 1 is the CNG cAMP Assay as described in Biological Example 1. Assay 2a and 2b are the Tango™ β-arrestin Recruitment Assay in HEK293 and U2OS cells, respectively, as described in Biological Example 2. Assay 3a is the hS1P1R GTPγS Binding Assay as described in Biological Example 3. Assay 3b is the GTP-Eu Binding Assay as described in Biological Example 3. EC50's were measured unless otherwise noted. […] In the table, “nt” means the Compound was not tested and “no” means the compound was tested but had no measurable activity under the assay conditions employed.
On the technique in general: Recruitment of arrestin is a read-out of receptor activation apart from second messengers.

Setting [1] is: Tango β-arrestin Recruitment Assay, read-out: Assay 2b EC50.

Sequence of S1P1 (P21453 whole entry, the tested form may be a part): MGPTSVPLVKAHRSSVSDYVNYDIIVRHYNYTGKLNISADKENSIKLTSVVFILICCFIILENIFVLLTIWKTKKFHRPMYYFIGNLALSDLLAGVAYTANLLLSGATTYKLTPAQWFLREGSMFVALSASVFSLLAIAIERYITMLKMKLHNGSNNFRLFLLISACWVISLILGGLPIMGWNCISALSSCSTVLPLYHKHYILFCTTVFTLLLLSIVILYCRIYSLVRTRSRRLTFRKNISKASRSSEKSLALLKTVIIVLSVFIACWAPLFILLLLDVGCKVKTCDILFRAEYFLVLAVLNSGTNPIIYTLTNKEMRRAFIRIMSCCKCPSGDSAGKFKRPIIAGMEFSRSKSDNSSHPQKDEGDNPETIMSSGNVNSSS
Sequence of S1P1 (P32121 whole entry partner, the tested form may be a part): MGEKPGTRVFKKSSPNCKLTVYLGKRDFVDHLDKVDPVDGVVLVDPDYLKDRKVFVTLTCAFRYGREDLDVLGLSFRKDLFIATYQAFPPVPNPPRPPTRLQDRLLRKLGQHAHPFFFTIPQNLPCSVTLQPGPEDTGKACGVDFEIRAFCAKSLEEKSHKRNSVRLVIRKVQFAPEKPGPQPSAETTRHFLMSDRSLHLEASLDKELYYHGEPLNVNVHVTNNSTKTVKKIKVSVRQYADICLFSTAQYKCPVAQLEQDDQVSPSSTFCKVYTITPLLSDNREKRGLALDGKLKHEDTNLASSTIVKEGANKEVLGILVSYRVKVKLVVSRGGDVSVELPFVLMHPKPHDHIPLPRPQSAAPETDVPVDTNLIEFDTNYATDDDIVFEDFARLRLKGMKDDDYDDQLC

For the compound `O=P(O)(O)COc1cc(Cl)c(-c2noc(-c3cn4cc(C(F)(F)F)cc(Cl)c4n3)n2)cc1Cl` [Entry 52], under setting [1], the EC50 is ≤ 100 nM.

As for `O=P(O)(O)OCC(O)COc1cc(Cl)c(-c2noc(-c3cn4cc(C(F)(F)F)cc(Cl)c4n3)n2)cc1Cl` (stereo not shown) [Entry 53], the EC50 under setting [1] is ≤ 100 nM.

In the case of `OCC(CO)NCCOc1cc(Cl)c(-c2noc(-c3cn4cc(C(F)(F)F)cc(Cl)c4n3)n2)cc1Cl` [Entry 65], the EC50 under setting [1] is ≤ 100 nM.

Regarding `NC(CO)COc1cc(Cl)c(-c2nc(-c3cn4cc(C(F)(F)F)cc(Cl)c4n3)no2)cc1Cl` (stereo not shown) [Example 80, 2-amino-3-[(2,5-dichloro-4-{3-[8-chloro-6-(trifluoromethyl)imidazo[1,2-a]pyridin-2-yl]-1,2,4-oxadiazol-5-yl}phenyl)oxy]propan-1-ol], under setting [1], the EC50 is ≤ 100 nM.

Consider `NC(COc1cc(Cl)c(-c2nnc(-c3cn4cc(C(F)(F)F)cc(Cl)c4n3)s2)cc1F)COP(=O)(O)O` (stereo not shown) [Example 82, 2-amino-3-[(5-chloro-4-{5-[8-chloro-6-(trifluoromethyl)imidazo[1,2-a]pyridin-2-yl]-1,3,4-thiadiazol-2-yl}-2-fluorophenyl)oxy]propyl dihydrogen phosphate], for which the concentration giving a half-maximal response (EC50) under setting [1] is ≤ 100 nM.

Consider `NC(CO)COc1cc(Cl)c(-c2nnc(-c3cn4cc(C(F)(F)F)ccc4n3)s2)cc1Cl` (stereo not shown) [Example 100, 2-amino-3-[(2,5;dichloro-4-{5-[6-(trifluomethyl)imidazo[1,2-a]pyridin-2-yl] 1,3,4-thiadiazol-2-yl}phenyl)oxy]propan-1-ol], for which the EC50 under setting [1] was ≤ 100 nM.

On to `NC(CO)COc1cc(Cl)c(-c2nnc(-c3cn4cc(Cl)ccc4n3)s2)cc1F` (stereo not shown) [Example 101, 2-amino-3-({5-chloro-4-[5-(6-chloroimidazo[1,2-a]pyridin-2-yl)-1,3,4-thiadiazol-2-yl]-2-fluorophenyl}oxy)propan-1-ol], for which the concentration giving a half-maximal response (EC50) under setting [1] is ≤ 100 nM.

Turning to `NC(CO)COc1cc(Cl)c(-c2nnc(-c3cn4cc(I)ccc4n3)s2)cc1F` (stereo not shown) [Example 102, 2-amino-3-({5-chloro-2-fluoro-4-[5-(6-iodoimidazo[1,2-a]pyridin-2-yl)-1,3,4-thiadiazol-2-yl]phenyl}oxy)propan-1-ol], the EC50 under setting [1] was ≤ 100 nM.

Take `NC(CO)(CO)CCc1cc(Cl)c(-c2noc(-c3cn4cc(C(F)(F)F)cc(Cl)c4n3)n2)cc1F` [Example 154, 2-amino-2-[2-(5-chloro-4-{5-[8-chloro-6-(trifluoromethyl)imidazo[1,2-a]pyridin-2-yl]-1,2,4-oxadiazol-3-yl}-2-fluorophenyl)ethyl]propane-1,3-diol]: the EC50 under setting [1] was ≤ 100 nM.

`C[C@H](CO)Oc1cc(Cl)c(-c2noc(-c3cn4cc(C(F)(F)F)cc(Cl)c4n3)n2)cc1Cl` [Example 155, (2R)-2-[(2,5-dichloro-4-{5-[8-chloro-6-(trifluoromethyl)imidazo[1,2-a]pyridin-2-yl]-1,2,4-oxadiazol-3-yl}phenyl)oxy]propan-1-ol]: the concentration for a half-maximal effect (EC50) under setting [1] was ≤ 100 nM.

Take `C[C@@H](CO)Oc1cc(Cl)c(-c2noc(-c3cn4cc(C(F)(F)F)cc(Cl)c4n3)n2)cc1Cl` [Example 156, (2S)-2-[(2,5-dichloro-4-{5-[8-chloro-6-(trifluoromethyl)imidazo[1,2-a]pyridin-2-yl]-1,2,4-oxadiazol-3-yl}phenyl)oxy]propan-1-ol]: the concentration for a half-maximal effect (EC50) under setting [1] is ≤ 100 nM.

In the case of `CC(O)COc1cc(Cl)c(-c2nc(-c3cn4cc(C(F)(F)F)cc(Cl)c4n3)no2)cc1Cl` (stereo not shown) [Example 178, 1-[(2,5-dichloro-4-{3-[8-chloro-6-(trifluoromethyl)imidazo[1,2-a]pyridin-2-yl]-1,2,4-oxadiazol-5-yl}phenyl)oxy]propan-2-ol], the EC50 under setting [1] was ≤ 100 nM.

With `CC(O)COc1cc(Cl)c(-c2nnc(-c3cn4cc(C(F)(F)F)cc(Cl)c4n3)o2)cc1F` (stereo not shown) [Example 179, 1-[(5-chloro-4-{5-[8-chloro-6-(trifluoromethyl)imidazo[1,2-a]pyridin-2-yl]-1,3,4-oxadiazol-2-yl}-2-fluorophenyl)oxy]propan-2-ol], the EC50 under setting [1] fell in the range of 100 to 500 nM.

As for `CC(O)COc1cc(Cl)c(-c2nc(-c3cn4cc(C(F)(F)F)cc(Cl)c4n3)no2)cc1F` (stereo not shown) [Example 184, 1-[(5-chloro-4-{3-[8-chloro-6-(trifluoromethyl)imidazo[1,2-a]pyridin-2-yl]-1,2,4-oxadiazol-5-yl}-2-fluorophenyl)oxy]propan-2-ol], under setting [1], the EC50 was ≤ 100 nM.

Turning to `CC(O)CCc1cc(Cl)c(-c2noc(-c3cn4cc(C(F)(F)F)cc(Cl)c4n3)n2)cc1Cl` (stereo not shown) [Example 185, 4-(2,5-dichloro-4-{5-[8-chloro-6-(trifluoromethyl)imidazo[1,2-a]pyridin-2-yl]-1,2,4-oxadiazol-3-yl}phenyl)butan-2-ol], the EC50 under setting [1] is ≤ 100 nM.

Take `N[C@@H](CO)COc1cc(Cl)c(-c2nnc(-c3cn4cc(C(F)(F)F)cc(Cl)c4n3)s2)cc1Cl` [Example 201, (2S)-2-amino-3-[(2,5-dichloro-4-{5-[8-chloro-6-(trifluoromethyl)imidazo[1,2-a]pyridin-2-yl]-1,3,4-thiadiazol-2-yl}phenyl)oxy]propan-1-ol]: the half-maximal effective concentration (EC50) under setting [1] was ≤ 100 nM.

As to `NC(CO)COc1cc(Cl)c(-c2nnc(-c3cn4cc(C(F)(F)F)cc(Cl)c4n3)o2)cc1Cl` (stereo not shown) [Example 202, 2-amino-3-[(2,5-dichloro-4-{5-[8-chloro-6-(trifluoromethyl)imidazo[1,2-a]pyridin-2-yl]-1,3,4-oxadiazol-2-yl}phenyl)oxy]propan-1-ol], the EC50 (Tango β-arrestin, footnote 1: Relative EC50 was measured, read-out: Assay 2b Relative EC50) fell in the range of 100 to 500 nM.

Regarding `O=C(O)C1CC1c1cc(Cl)c(-c2noc(-c3cn4cc(C(F)(F)F)cc(Cl)c4n3)n2)cc1Cl` (stereo not shown) [Example 211, 2-(2,5-dichloro-4-{5-[8-chloro-6-(trifluoromethyl)imidazo[1,2-a]pyridin-2-yl]-1,2,4-oxadiazol-3-yl}phenyl)cyclopropanecarboxylic acid], under setting [1], the EC50 was ≤ 100 nM.

Turning to `NC(CO)COc1cc(Cl)c(-c2nnc(-c3cn4cc(C(F)(F)F)cc(Cl)c4n3)s2)cc1Cl` (stereo not shown) [Example 220, 2-amino-3-[(2,5-dichloro-4-{5-[8-chloro-6-(trifluoromethyl)imidazo[1,2-a]pyridin-2-yl]-1,3,4-thiadiazol-2-yl}phenyl)oxy]propan-1-ol], the EC50 under setting [1] was ≤ 100 nM.

For the compound `CC(CCc1cc(Cl)c(-c2noc(-c3cn4cc(C(F)(F)F)cc(Cl)c4n3)n2)cc1Cl)OP(=O)(O)O` (stereo not shown) [Example 221, 3-(2,5-dichloro-4-{5-[8-chloro-6-(trifluoromethyl)imidazo[1,2-a]pyridin-2-yl]-1,2,4-oxadiazol-3-yl}phenyl)-1-methylpropyl dihydrogen phosphate], the EC50 under setting [1] was ≤ 100 nM.

In the case of `NC(CO)COc1cc(Cl)c(-c2nnc(-c3cn4cc(C(F)(F)F)cc(Cl)c4n3)o2)cc1F` (stereo not shown) [Example 222, 2-amino-3-[(5-chloro-4-{5-[8-chloro-6-(trifluoromethyl)imidazo[1,2-a]pyridin-2-yl]-1,3,4-oxadiazol-2-yl}-2-fluorophenyl)oxy]propan-1-ol], the EC50 under setting [1] is ≤ 100 nM.

On to `OC(COc1cc(Cl)c(-c2noc(-c3cn4cc(C(F)(F)F)cc(Br)c4n3)n2)cc1Cl)C(F)(F)F` (stereo not shown) [Example 294, 3-[(4-{5-[8-bromo-6-(trifluoromethyl)imidazo[1,2-a]pyridin-2-yl]-1,2,4-oxadiazol-3-yl}-2,5-dichlorophenyl)oxy]-1,1,1-trifluoropropan-2-ol], for which, under setting [1], the EC50 is ≤ 100 nM.

Regarding `O=C(O)CCc1c(F)cc(-c2noc(-c3cn4cc(C(F)(F)F)cc(Cl)c4n3)n2)cc1Cl` [Example 296, 3-(2-chloro-4-{5-[8-chloro-6-(trifluoromethyl)imidazo[1,2-a]pyridin-2-yl]-1,2,4-oxadiazol-3-yl}-6-fluorophenyl)propanoic acid], the concentration giving a half-maximal response (EC50) under setting [1] is ≤ 100 nM.

As for `Cc1cc(CCC(=O)O)c(Cl)cc1-c1nc(-c2cn3cc(I)cc(Cl)c3n2)no1` [Example 297, 3-{2-chloro-4-[3-(8-chloro-6-iodoimidazo[1,2-a]pyridin-2-yl)-1,2,4-oxadiazol-5-yl]-5-methylphenyl}propanoic acid], under setting [1], the EC50 is ≤ 100 nM.

For the compound `CC(N)COc1cc(Cl)c(-c2nnc(-c3cn4cc(C(F)(F)F)cc(Cl)c4n3)s2)cc1F` (stereo not shown) [Example 298, 1-[(5-chloro-4-{5-[8-chloro-6-(trifluoromethyl)imidazo[1,2-a]pyridin-2-yl]-1,3,4-thiadiazol-2-yl}-2-fluorophenyl)pxy]propan-2-amine], the EC50 (Tango β-arrestin Recruitment Assay, footnote 1: Relative EC50 was measured, read-out: Assay 2b relative EC50) is 100 to 500 nM.

The EC50 is the concentration giving half of the maximal effect.
